Source: patent US8940310B2, “Methods of treatment using TLR7 and/or TLR9 inhibitors” (Dynavax Technologies Corporation, priority 2010, dated 2015)
Marks after values point to notes of the source that are not given here. [I] = hypoxanthine (inosine)

Columns and labels:
[1] = High dosages of IRPs in mice (weight, histology); format: in vivo, BALB/c mice; conditions: for Liver: Liver changes, number of animals / Liver: Mixed cell infiltration, number of animals / Liver: No significan changes, number of animals / Right Kidney: No significant changes, number of animals / Right Kidney: Tubular basophilia, number of animals / Right Kidney: Tubular changes, number of animals: 6 animals; for Heart: No significant changes, number of animals: tissue missing in two animals
Description: To test the activity of IRPs at high dosages in mice, IRPs or a control (saline) were subcutaneously administered to BALB/c mice at a dosage of 4 mg/kg, 20 mg/kg, 50 mg/kg, or 100 mg/kg on days 1, 4, 7, and 10 (n=5 per group). Mice were weighed prior to administration and on days 2, 4, 7, 9, and 11. Serum cytokines were assayed at two hours post the first and third injections and 24 hours post the fourth injection. Organs were harvested at the end of the study, and organ weights and tissues levels of the oligonucleotides were determined. In addition, histological evaluation of the liver, kidney, and heart was performed.
Mice were weighed prior to administration and on days 1, 3, 4, 6, 7, and 9. Organs were harvested at the end of the study, and organ weights and tissues levels of the oligonucleotides were determined. In addition, histological evaluation of the liver, kidney, and heart was performed.

human B-cells = test: Human B-cells cultured in the presence of IRPs, IL-6
[2] = Monomer and tetramer formation of IRPs, size-exclusion HPLC; format: physicochemical; conditions: 100 mg/mL in PBS and 0.5M KCl, room temperature, five weeks
Description: Solutions were prepared of the by mixing 100 mg/mL of the IRP sequences in PBS and 0.5M KCl and storing at room temperature for three to five weeks. The solutions were subsequently analyzed by size-exclusion HPLC.

[3] = High dosages of IRPs in rats (weight, deaths, histology); format: in vivo, Sprague Dawley rats; conditions: rat; for Heart: Cell Vacuolation, number of animals / Heart: Hemorrhage, number of animals / Heart: Mononuclear Cell Infiltration, number of animals / Heart: Necrosis, number of animals / Heart: No significant changes, number of animals / Liver: Liver changes, number of animals / Liver: Mixed cell infiltration, number of animals / Liver: Necrosis, number of animals / Liver: No significant changes, number of animals / Liver: Vacuolation, number of animals / Right Kidney: Hydronephrosis, number of animals / Right Kidney: Mineralization, number of animals / Right Kidney: Necrosis, number of animals / Right Kidney: No significant changes, number of animals / Right Kidney: Tubular basophilia, number of animals / Right Kidney: Tubular changes, number of animals: 6 animals
Description: To test the activity of IRPs at high dosages in rats, IRPs (SEQ ID NO:42 and SEQ ID NO:109) or a control (PBS) were subcutaneously administered to 8-9 weeks old, […], 3, 6, and 9 (n=6 per group). Rats were weighed prior to administration and on days 1, 3, 4, 6, 7, and 9. Organs were harvested at the end of the study, and organ weights and tissues levels of the oligonucleotides were determined. In addition, histolocial evaluation of the liver, kidney, and heart was performed.
Rats were weighed prior to administration and on days 1, 3, 6, 7, and 9. Organs were harvested at the end of the study, and organ weights and tissues levels of the oligonucleotides were determined. In addition, histological evaluation of the liver, kidney, and heart was performed.

[4] = 50 mg/kg, 0 = no change to 4 = severe
[5] = 100 mg/kg, 0 = no change to 4 = severe
[6] = 10 mg/kg, 0 = no change to 4 = severe
[7] = 90 mg/kg, 0 = no change to 4 = severe

Substance: 5′-TGC TGC TCC TGG AGI GGT GTT GT-3′ (DNA TGCTGCTCCTGGAGNGGTGTTGT; DNA, [I] at 15, backbone and methylation of C not given here) [SEQ ID NO:79]
- Heart: Chronic inflammation, number of animals ([1]; 50 mg/kg): 2
- Heart: Mineralization, number of animals ([1]; 50 mg/kg): 1
- Heart: Chronic inflammation, mean severity score [1, 4]: 2.0
- Heart: Mineralization, mean severity score [1, 4]: 2.0
- Liver: Liver changes, mean severity score [1, 4]: 1.0
- Liver: Mixed cell infiltration, mean severity score [1, 4]: 1.0
- Liver: Liver changes, number of animals ([1]; 50 mg/kg): 6
- Liver: Mixed cell infiltration, number of animals ([1]; 50 mg/kg): 4
- Liver: No significan changes, number of animals ([1]; 50 mg/kg): 0
- Right Kidney: No significant changes, number of animals ([1]; 50 mg/kg): 6
- Right Kidney: Tubular basophilia, number of animals ([1]; 50 mg/kg): 0
- Right Kidney: Tubular changes, number of animals ([1]; 50 mg/kg): 0
- Heart: No significant changes, number of animals ([1]; 50 mg/kg): 1**
- Heart: Chronic inflammation, number of animals ([1]; 100 mg/kg): 1
- Heart: Mineralization, number of animals ([1]; 100 mg/kg): 2
- Heart: Chronic inflammation, mean severity score [1, 5]: 3.0
- Heart: Mineralization, mean severity score [1, 5]: 2.5
- Liver: Liver changes, mean severity score [1, 5]: 2.0
- Liver: Mixed cell infiltration, mean severity score [1, 5]: 2.0
- Right Kidney: Tubular changes, mean severity score [1, 5]: 2.0
- Liver: Liver changes, number of animals ([1]; 100 mg/kg): 6
- Liver: Mixed cell infiltration, number of animals ([1]; 100 mg/kg): 6
- Liver: No significan changes, number of animals ([1]; 100 mg/kg): 0
- Right Kidney: No significant changes, number of animals ([1]; 100 mg/kg): 0
- Right Kidney: Tubular basophilia, number of animals ([1]; 100 mg/kg): 0
- Right Kidney: Tubular changes, number of animals ([1]; 100 mg/kg): 6
- Heart: No significant changes, number of animals ([1]; 100 mg/kg): 1**
- Normalized IL-6 Response (Percentage of Positive Control) (human B-cells; Experiment # 1, Max Conc 4.0 uM): 33%
- Normalized IL-6 Response (Percentage of Positive Control) (human B-cells; Experiment # 3, Max Conc 4.0 uM): 18%
- Normalized IL-6 Response (Percentage of Positive Control) (human B-cells; Experiment # 11, Max Conc 2.0 uM): 28%
- B-cell stimulatory activity (human B-cells; FIG. 1C, percent IL-6 from CpG-ISS): low B-cell stimulatory activity
- fraction in monomer form [2]: 100%
- Heart: Cell Vacuolation, number of animals ([3]; 10 mg/kg): 0
- Heart: Hemorrhage, number of animals ([3]; 10 mg/kg): 0
- Heart: Mononuclear Cell Infiltration, number of animals ([3]; 10 mg/kg): 0
- Heart: Necrosis, number of animals ([3]; 10 mg/kg): 0
- Heart: No significant changes, number of animals ([3]; 10 mg/kg): 6
- Liver: Liver changes, number of animals ([3]; 10 mg/kg): 0
- Liver: Mixed cell infiltration, number of animals ([3]; 10 mg/kg): 6
- Liver: Necrosis, number of animals ([3]; 10 mg/kg): 0
- Liver: No significant changes, number of animals ([3]; 10 mg/kg): 0
- Liver: Vacuolation, number of animals ([3]; 10 mg/kg): 0
- Right Kidney: Hydronephrosis, number of animals ([3]; 10 mg/kg): 0
- Right Kidney: Mineralization, number of animals ([3]; 10 mg/kg): 2
- Right Kidney: Necrosis, number of animals ([3]; 10 mg/kg): 0
- Right Kidney: No significant changes, number of animals ([3]; 10 mg/kg): 1
- Right Kidney: Tubular basophilia, number of animals ([3]; 10 mg/kg): 0
- Right Kidney: Tubular changes, number of animals ([3]; 10 mg/kg): 5
- Liver: Mixed cell infiltration, mean severity score [3, 6]: 1.8
- Right Kidney: Mineralization, mean severity score [3, 6]: 1.0
- Right Kidney: Tubular changes, mean severity score [3, 6]: 1.1
- Heart: cellular vacuolation ([3]; 90 mg/kg): present in some animals
- Heart: hemorrhage and necrosis ([3]; 90 mg/kg): noted
- Kidney: tubular basophilia ([3]; 90 mg/kg): occurred
- Liver: hepatocellular cytoplasmic vacuolation ([3]; 90 mg/kg): hepatocellular cytoplasmic vacuolation
- Liver: hepatocellular necrosis ([3]; 90 mg/kg): hepatocellular necrosis
- Renal necrosis ([3]; 90 mg/kg): noted
- deaths two days after the first dose ([3]; 90 mg/kg SC, n=6): two rats died
- deaths two days after the second dose ([3]; 90 mg/kg SC, n=6): one rat died
- Heart: Cell Vacuolation, number of animals ([3]; 90 mg/kg): 2
- Heart: Hemorrhage, number of animals ([3]; 90 mg/kg): 2
- Heart: Mononuclear Cell Infiltration, number of animals ([3]; 90 mg/kg): 0
- Heart: Necrosis, number of animals ([3]; 90 mg/kg): 3
- Heart: No significant changes, number of animals ([3]; 90 mg/kg): 1
- Liver: Liver changes, number of animals ([3]; 90 mg/kg): 3
- Liver: Mixed cell infiltration, number of animals ([3]; 90 mg/kg): 3
- Liver: Necrosis, number of animals ([3]; 90 mg/kg): 2
- Liver: No significant changes, number of animals ([3]; 90 mg/kg): 0
- Liver: Vacuolation, number of animals ([3]; 90 mg/kg): 3
- Right Kidney: Hydronephrosis, number of animals ([3]; 90 mg/kg): 0
- Right Kidney: Mineralization, number of animals ([3]; 90 mg/kg): 1
- Right Kidney: Necrosis, number of animals ([3]; 90 mg/kg): 3
- Right Kidney: No significant changes, number of animals ([3]; 90 mg/kg): 0
- Right Kidney: Tubular basophilia, number of animals ([3]; 90 mg/kg): 2
- Right Kidney: Tubular changes, number of animals ([3]; 90 mg/kg): 3
- Heart: Cell Vacuolation, mean severity score [3, 7]: 1.5
- Heart: Hemorrhage, mean severity score [3, 7]: 3.5
- Heart: Necrosis, mean severity score [3, 7]: 2.0
- Liver: Liver changes, mean severity score [3, 7]: 1.8
- Liver: Mixed cell infiltration, mean severity score [3, 7]: 2.5
- Liver: Necrosis, mean severity score [3, 7]: 2.8
- Liver: Vacuolation, mean severity score [3, 7]: 2.3
- Right Kidney: Mineralization, mean severity score [3, 7]: 2.0
- Right Kidney: Necrosis, mean severity score [3, 7]: 4.0
- Right Kidney: Tubular basophilia, mean severity score [3, 7]: 2.8
- Right Kidney: Tubular changes, mean severity score [3, 7]: 2.0
